# Source: ChEMBL document CHEMBL2073975, “Inflammatory cytokines, but not bile acids, regulate expression of murine hepatic anion transporters in endotoxemia” (J Pharmacol Exp Ther, 2002)
# How the values were obtained:
# Format in all cases: functional, organism-based
# [1] = molecular target: T1, Solute carrier organic anion transporter family member 1A1 (Mus musculus, UniProt Q9QXZ6); assay: (§1) TP_TRANSPORTER: RT-PCR in vivo, liver of CD-1 mouse
# T1 sequence (Q9QXZ6 whole entry): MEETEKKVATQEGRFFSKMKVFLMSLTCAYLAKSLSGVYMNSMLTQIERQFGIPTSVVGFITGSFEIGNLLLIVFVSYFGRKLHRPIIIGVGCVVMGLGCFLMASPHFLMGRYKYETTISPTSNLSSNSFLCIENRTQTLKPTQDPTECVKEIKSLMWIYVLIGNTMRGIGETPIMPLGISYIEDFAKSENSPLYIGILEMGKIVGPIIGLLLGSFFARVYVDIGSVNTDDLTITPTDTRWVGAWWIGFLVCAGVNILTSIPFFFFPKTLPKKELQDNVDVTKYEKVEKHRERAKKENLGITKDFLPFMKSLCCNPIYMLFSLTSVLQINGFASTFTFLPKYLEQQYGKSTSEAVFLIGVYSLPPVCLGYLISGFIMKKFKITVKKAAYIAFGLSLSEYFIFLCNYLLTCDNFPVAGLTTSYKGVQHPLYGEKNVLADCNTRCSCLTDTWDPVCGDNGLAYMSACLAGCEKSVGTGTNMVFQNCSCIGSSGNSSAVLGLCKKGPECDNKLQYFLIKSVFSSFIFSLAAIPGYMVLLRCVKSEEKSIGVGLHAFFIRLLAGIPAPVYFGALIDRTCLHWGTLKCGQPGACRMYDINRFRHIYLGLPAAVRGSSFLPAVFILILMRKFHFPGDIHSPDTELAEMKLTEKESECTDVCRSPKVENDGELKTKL
# [2] = molecular target: ATP-binding cassette sub-family C member 3 (Mus musculus, UniProt B2RX12); assay: as §1
# ATP-binding cassette sub-family C member 3, sequence (B2RX12 whole entry): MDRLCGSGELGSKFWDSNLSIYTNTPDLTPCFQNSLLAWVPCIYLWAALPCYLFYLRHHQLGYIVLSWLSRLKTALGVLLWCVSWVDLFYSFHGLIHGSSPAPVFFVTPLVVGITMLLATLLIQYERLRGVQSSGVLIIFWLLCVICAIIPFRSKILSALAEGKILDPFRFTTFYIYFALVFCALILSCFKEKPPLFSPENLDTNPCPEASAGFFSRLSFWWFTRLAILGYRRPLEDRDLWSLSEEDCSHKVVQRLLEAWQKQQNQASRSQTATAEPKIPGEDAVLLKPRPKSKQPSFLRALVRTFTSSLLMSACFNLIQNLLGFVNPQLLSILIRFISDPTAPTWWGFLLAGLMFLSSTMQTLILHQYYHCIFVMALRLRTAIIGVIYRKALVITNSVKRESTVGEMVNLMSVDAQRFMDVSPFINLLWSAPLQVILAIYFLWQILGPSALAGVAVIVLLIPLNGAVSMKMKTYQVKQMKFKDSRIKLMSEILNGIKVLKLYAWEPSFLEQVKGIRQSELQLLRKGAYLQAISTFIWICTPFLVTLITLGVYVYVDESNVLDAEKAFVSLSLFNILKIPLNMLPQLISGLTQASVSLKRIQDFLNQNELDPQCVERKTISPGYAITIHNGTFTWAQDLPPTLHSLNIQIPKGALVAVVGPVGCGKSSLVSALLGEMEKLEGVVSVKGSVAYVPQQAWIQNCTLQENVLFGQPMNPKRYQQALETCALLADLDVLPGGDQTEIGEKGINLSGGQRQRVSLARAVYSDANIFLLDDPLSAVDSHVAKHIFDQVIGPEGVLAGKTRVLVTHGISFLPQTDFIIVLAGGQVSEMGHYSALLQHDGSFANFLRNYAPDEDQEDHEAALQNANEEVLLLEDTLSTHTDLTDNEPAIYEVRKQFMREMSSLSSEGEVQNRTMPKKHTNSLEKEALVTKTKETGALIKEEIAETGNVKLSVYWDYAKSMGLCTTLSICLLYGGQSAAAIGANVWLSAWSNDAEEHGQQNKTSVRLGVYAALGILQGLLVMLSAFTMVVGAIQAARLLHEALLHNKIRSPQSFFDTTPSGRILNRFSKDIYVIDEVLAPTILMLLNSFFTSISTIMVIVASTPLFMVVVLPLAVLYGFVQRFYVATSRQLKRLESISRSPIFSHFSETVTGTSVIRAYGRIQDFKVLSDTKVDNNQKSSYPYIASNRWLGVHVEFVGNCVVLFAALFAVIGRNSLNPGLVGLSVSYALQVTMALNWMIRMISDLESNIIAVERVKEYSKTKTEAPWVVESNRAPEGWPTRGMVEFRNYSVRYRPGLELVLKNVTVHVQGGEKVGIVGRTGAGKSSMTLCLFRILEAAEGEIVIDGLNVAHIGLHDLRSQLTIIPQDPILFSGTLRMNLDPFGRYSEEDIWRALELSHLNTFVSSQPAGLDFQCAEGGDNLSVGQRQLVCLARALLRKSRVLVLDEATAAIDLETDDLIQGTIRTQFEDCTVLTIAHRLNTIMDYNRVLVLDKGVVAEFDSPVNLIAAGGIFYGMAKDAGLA
# [3] = molecular target: T2, Bile salt export pump (Mus musculus, UniProt Q9QY30); assay: as §1
# T2 sequence (Q9QY30 whole entry): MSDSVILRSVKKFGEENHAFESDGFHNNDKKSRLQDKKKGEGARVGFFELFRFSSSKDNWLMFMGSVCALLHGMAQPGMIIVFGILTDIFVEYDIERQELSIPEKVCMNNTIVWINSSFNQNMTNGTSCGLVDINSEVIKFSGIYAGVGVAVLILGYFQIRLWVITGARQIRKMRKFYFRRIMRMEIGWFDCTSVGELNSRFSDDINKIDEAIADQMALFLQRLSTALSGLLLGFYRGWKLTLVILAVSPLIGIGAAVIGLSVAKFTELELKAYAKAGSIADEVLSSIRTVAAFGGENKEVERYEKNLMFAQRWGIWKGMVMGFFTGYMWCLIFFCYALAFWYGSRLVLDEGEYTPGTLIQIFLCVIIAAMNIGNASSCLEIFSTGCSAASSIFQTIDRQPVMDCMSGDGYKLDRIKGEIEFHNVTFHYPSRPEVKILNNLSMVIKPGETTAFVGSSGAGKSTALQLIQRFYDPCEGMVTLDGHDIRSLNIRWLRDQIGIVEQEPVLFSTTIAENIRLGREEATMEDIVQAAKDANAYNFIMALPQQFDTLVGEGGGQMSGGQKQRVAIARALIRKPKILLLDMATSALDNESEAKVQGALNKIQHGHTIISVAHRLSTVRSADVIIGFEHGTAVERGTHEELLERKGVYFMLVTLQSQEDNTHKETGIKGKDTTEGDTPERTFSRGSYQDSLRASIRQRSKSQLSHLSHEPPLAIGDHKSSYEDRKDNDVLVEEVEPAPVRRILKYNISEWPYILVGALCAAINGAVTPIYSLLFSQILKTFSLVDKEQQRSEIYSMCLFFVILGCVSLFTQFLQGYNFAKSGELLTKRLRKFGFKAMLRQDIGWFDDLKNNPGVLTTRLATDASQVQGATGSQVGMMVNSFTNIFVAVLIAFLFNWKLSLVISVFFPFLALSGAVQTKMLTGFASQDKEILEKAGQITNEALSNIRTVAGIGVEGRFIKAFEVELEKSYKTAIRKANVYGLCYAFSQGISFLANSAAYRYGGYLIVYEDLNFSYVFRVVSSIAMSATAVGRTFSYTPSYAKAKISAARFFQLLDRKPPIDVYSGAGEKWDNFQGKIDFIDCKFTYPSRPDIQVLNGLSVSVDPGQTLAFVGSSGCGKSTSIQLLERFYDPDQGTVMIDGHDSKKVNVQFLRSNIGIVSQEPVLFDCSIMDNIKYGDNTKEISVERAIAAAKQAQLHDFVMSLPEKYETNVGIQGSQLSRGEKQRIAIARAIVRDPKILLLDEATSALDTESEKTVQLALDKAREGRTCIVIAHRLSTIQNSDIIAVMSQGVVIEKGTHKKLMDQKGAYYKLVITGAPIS
# [4] = molecular target: ATP-binding cassette sub-family C member 2 (Mus musculus, UniProt Q8VI47); assay: as §1
# ATP-binding cassette sub-family C member 2, sequence (Q8VI47 whole entry): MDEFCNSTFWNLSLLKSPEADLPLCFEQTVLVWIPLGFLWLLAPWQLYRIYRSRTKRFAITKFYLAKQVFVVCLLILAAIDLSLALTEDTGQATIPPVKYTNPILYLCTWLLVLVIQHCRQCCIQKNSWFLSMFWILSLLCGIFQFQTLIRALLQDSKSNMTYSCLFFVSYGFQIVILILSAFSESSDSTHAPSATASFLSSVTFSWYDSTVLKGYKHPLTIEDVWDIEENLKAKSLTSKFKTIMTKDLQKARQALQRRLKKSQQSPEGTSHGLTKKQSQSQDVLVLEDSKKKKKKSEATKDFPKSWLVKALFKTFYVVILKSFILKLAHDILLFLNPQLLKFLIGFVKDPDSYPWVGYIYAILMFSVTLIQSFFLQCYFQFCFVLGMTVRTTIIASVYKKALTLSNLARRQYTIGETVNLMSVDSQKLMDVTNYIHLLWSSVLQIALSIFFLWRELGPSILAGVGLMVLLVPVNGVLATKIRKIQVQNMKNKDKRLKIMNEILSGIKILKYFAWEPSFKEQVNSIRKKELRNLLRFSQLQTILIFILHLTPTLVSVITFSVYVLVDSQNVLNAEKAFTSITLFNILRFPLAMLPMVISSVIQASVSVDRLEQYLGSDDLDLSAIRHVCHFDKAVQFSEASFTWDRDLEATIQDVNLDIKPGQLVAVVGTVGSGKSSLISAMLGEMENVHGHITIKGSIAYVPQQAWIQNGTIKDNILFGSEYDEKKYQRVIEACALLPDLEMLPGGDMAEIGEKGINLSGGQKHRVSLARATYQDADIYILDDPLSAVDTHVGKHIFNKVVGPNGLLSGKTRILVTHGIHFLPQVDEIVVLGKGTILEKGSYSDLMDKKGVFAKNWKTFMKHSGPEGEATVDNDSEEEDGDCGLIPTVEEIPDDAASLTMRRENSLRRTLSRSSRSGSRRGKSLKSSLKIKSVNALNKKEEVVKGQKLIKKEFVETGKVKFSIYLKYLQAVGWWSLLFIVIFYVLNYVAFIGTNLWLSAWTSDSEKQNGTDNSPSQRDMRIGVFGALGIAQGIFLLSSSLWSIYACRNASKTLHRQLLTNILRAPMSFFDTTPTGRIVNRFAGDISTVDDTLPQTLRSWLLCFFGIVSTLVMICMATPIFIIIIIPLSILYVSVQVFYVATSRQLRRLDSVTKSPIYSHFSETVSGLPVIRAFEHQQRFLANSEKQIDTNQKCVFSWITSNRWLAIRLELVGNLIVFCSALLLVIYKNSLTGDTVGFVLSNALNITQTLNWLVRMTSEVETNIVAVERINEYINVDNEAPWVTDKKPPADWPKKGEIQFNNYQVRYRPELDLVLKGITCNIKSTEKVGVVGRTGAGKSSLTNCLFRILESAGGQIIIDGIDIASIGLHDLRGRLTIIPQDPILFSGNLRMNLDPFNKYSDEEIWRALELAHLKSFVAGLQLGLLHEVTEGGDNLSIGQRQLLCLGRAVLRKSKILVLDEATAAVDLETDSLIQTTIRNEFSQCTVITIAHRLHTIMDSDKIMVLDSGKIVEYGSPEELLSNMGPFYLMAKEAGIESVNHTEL
# [5] = molecular target: T3, Solute carrier organic anion transporter family member 1A4 (Mus musculus, UniProt Q9EP96); assay: as §1
# T3 sequence (Q9EP96 whole entry): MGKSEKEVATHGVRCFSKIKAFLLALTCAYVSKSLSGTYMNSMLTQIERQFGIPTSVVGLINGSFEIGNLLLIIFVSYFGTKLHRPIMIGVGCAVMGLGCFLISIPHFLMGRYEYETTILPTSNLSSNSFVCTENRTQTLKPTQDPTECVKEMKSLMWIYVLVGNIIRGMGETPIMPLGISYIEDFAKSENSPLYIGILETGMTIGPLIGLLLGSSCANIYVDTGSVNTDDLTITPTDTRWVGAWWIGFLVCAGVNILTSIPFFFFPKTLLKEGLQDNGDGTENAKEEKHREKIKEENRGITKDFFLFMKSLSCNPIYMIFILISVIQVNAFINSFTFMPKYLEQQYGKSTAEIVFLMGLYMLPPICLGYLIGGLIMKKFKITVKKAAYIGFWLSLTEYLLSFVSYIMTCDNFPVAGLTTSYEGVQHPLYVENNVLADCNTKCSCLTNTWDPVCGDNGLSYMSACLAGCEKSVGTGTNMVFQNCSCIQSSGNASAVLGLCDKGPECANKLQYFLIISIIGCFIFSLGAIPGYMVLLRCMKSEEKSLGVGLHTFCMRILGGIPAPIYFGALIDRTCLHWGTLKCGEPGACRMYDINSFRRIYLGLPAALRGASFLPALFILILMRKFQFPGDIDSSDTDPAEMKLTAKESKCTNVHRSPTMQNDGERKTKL
# [6] = molecular target: Multidrug resistance-associated protein 1 (Mus musculus, UniProt O35379); assay: as §1
# Multidrug resistance-associated protein 1, sequence (O35379 whole entry): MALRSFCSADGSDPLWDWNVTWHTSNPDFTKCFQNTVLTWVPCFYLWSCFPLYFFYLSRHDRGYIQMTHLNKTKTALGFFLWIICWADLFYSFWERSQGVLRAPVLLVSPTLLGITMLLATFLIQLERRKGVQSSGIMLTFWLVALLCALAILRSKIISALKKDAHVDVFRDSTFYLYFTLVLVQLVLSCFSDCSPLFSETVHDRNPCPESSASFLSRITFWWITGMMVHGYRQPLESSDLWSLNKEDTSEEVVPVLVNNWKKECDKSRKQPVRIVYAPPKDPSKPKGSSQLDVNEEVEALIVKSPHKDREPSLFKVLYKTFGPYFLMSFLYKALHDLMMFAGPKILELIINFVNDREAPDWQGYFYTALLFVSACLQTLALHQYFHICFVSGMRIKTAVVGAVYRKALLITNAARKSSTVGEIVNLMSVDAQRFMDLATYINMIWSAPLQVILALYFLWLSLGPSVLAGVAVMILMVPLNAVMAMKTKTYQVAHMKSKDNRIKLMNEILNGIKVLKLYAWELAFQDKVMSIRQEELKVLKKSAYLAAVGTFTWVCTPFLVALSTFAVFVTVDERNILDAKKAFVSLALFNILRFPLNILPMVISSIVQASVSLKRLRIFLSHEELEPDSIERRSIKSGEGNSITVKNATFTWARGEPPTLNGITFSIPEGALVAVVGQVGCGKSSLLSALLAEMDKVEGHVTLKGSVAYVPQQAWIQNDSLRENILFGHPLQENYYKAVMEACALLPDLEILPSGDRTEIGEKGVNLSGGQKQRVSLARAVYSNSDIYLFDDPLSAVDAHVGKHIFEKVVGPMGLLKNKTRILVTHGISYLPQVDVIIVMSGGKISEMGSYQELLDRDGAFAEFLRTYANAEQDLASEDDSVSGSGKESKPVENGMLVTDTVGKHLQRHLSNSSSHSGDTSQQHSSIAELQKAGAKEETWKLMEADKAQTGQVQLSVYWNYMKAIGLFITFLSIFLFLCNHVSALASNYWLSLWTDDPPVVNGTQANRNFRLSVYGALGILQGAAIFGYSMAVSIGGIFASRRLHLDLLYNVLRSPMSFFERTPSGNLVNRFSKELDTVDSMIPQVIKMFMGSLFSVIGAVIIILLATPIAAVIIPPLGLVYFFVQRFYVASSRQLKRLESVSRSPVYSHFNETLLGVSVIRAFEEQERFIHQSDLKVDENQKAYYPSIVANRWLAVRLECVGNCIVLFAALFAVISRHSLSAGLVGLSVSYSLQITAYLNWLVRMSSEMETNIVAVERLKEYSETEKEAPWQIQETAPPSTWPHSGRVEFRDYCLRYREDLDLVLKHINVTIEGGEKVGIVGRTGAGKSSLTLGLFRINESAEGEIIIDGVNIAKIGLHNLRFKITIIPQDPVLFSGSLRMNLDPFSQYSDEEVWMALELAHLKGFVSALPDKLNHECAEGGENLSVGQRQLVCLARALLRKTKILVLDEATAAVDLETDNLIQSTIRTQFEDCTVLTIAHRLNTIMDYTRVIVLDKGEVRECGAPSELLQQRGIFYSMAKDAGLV
Compound,Activity [1],Activity [2],Activity [3],Activity [4],Activity [5],Activity [6]
INTERLEUKIN 6,inducer [Decrease],,inducer [Decrease],inducer [Decrease],inducer [Decrease],
CCCCCCCCCCCCCC(=O)OC(CCCCCCCCCCC)CC(=O)OC1C(NC(=O)CC(CCCCCCCCCCC)OC(=O)CCCCCCCCCCC)C(OC2CC(OC(=O)CC(O)CCCCCCCCCCC)C(NC(=O)CC(O)CCCCCCCCCCC)C(O)O2)OC(CO)C1OP(=O)(O)O (stereo not given),inducer [Decrease],inducer [Decrease],inducer [Decrease],inducer [Decrease],inducer [Decrease],is not an inducer [-]
C[C@H](CCC(=O)NCCS(=O)(=O)O)[C@H]1CC[C@H]2[C@@H]3CC[C@@H]4C[C@H](O)CC[C@]4(C)[C@H]3C[C@H](O)[C@]12C [TAURODEOXYCHOLIC ACID],is not an inducer [-],,inducer [+],is not an inducer [-],is not an inducer [-],is not an inducer [-]

# Continued, values first:
Activity [1],Activity [2],Activity [3],Activity [4],Activity [5],Activity [6],Compound
inducer [Decrease],is not an inducer [-],inducer [Decrease],inducer [Decrease],inducer [Decrease],,INTERLEUKIN 1BETA
inducer [Decrease],is not an inducer [-],inducer [Decrease],inducer [Decrease],inducer [Decrease],,TURPENTINE
